Patent US11638707B2, “Substituted amino triazoles useful as chitinase inhibitors” (Molecure S.A., priority 2019, dated 2023)
Structures can show the parent of a compound that is named as a salt.

Biological target: hERG channel (Homo sapiens (Human), UniProt Q12809)
Assay: Human ERG channel binding assay (fluorescence polarization)
Conditions: Table 1; tracer displacement, 4 h at room temperature
Protocol: Human ERG Channel Binding Assay
Fluorescence polarization assay based on the principle of fluorescence polarization where a red-shifted fluorescent tracer is displaced from the hERG channel by compounds that bind to the channel was used to establish the binding of the compounds to hERG channel. […] Briefly, the compounds in serial dilutions were incubated with a membrane fraction containing hERG channel protein and a high-affinity red fluorescent hERG channel ligand in black 384-well plate. […] The IC50 values were calculated using GraphPad Prism.

Sequence of hERG channel (Q12809 whole entry): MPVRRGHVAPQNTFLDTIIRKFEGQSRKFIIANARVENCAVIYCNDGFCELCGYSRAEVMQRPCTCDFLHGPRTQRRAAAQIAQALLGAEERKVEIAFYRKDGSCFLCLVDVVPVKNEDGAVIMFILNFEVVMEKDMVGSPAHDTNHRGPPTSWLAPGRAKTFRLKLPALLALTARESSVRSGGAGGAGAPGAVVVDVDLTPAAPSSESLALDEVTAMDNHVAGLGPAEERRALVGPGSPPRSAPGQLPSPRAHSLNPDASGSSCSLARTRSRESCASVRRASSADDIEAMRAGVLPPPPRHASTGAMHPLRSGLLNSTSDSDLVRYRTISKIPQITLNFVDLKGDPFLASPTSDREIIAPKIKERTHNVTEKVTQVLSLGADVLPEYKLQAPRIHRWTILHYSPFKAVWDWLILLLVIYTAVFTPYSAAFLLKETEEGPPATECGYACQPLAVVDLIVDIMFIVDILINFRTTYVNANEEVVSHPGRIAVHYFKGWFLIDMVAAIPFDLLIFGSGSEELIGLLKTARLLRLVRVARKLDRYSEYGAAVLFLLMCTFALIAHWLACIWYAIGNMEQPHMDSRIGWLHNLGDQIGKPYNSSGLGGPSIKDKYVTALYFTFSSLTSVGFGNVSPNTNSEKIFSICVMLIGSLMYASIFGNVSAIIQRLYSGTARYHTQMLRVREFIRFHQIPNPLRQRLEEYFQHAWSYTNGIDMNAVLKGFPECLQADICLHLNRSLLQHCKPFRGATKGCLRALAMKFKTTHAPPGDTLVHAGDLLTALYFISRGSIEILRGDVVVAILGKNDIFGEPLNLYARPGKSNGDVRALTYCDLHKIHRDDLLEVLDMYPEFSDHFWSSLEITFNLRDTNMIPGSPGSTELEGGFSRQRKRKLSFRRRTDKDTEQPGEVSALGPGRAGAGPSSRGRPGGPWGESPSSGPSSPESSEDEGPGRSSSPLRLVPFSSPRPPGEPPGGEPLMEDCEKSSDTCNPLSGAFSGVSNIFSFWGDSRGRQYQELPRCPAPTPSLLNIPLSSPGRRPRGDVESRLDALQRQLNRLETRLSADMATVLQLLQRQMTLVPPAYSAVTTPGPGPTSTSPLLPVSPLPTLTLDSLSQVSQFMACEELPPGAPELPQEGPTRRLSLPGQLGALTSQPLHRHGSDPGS

SMILES	IC50 [µM]
CC1(O)CCN(C2CCN(c3nnc(N)[nH]3)CC2)[C@@H](Cc2ccc(Cl)cc2)C1 (stereo partly drawn) [Example 59, (2S)-1′-(5-amino-4H-1,2,4-triazol-3-yl)-2-(4-chlorobenzyl)-4-methyl-[1,4′-bipiperidin]-4-ol 2,2,2-trifluoroacetate]	25 to 100
CO[C@@H]1CC[C@H](Cc2ccc(Cl)cc2)N(C2CCN(c3nnc(N)[nH]3)CC2)C1 [Example 71, 5-((2R,5R)-2-(4-chlorobenzyl)-5-methoxy-[1,4′-bipiperidin]-1′-yl)-4H-1,2,4-triazol-3-amine 2,2,2-trifluoroacetate]	25 to 100

Same assay, conditions: Table 2, comparative examples; tracer displacement, 4 h at room temperature

SMILES	IC50 [µM]
Nc1nnc(N2CCC(N3CCOC[C@@H]3Cc3ccc(Cl)cc3)CC2)[nH]1 [Example C1, reference compound]	10 to 25
CC(C)C[C@H]1CN(C2CCN(c3nnc(N)[nH]3)CC2)[C@@H](Cc2ccc(Cl)cc2)CO1 [Example C2, reference compound]	1 to 10
COC(C)(C)[C@H]1CN(C2CCN(c3nnc(N)[nH]3)CC2)[C@@H](Cc2ccc(Cl)cc2)CO1 [Example C3, reference compound]	10 to 25
Nc1nnc(N2CCC(N3CCCC[C@@H]3Cc3ccc(Cl)cc3)CC2)[nH]1 [Example C4, reference compound]	1 to 10
CO[C@H]1CN(C2CCN(c3nnc(N)[nH]3)CC2)[C@H]1Cc1ccc(Cl)cc1 [Example C6, reference compound]	< 1
Nc1nnc(N2CCC(N3CCC[C@@H]3Cc3ccc(Cl)cc3)CC2)[nH]1 [Example C7, reference compound]	1 to 10
C[C@H]1CN(C2CCN(c3nnc(N)[nH]3)CC2)[C@@H](Cc2ccc(Cl)cc2)CN1C [Example C8, reference compound]	1 to 10
CC(C)CN1CCN(C2CCN(c3nnc(N)[nH]3)CC2)[C@@H](Cc2ccc(Cl)cc2)C1 [Example C9, reference compound]	1 to 10
CN1C[C@H](Cc2ccc(Cl)cc2)N(C2CCN(c3nnc(N)[nH]3)CC2)C[C@@H]1Cc1ccc(Cl)cc1 [Example C10, reference compound]	< 1
CN1C[C@H](Cc2ccc(Cl)cc2)N(C2CCN(c3nnc(N)[nH]3)CC2)C[C@@H]1CC1CCCCC1 [Example C11, reference compound]	< 1
CC(C)C[C@H]1CN(C2CCN(c3nnc(N)[nH]3)CC2)[C@@H](Cc2ccc(Cl)cc2)CN1C [Example C12, reference compound]	< 1
Nc1nnc(N2CCC(N3C[C@@H](O)C[C@@H]3Cc3ccc(Cl)cc3)CC2)[nH]1 [Example C14, reference compound]	10 to 25
Nc1nnc(N2CCC(N3C[C@@H]4CCCN4C[C@@H]3Cc3ccc(Cl)cc3)CC2)[nH]1 [Example C15, reference compound]	1 to 10
CN1C[C@H](Cc2ccc(Cl)cc2)N(C2CCN(c3nnc(N)[nH]3)CC2)Cc2ccccc21 [Example C17, reference compound]	1 to 10
CN1C[C@H](Cc2ccc(Cl)cc2)N(C2CCN(c3nnc(N)[nH]3)CC2)Cc2cc(Cl)ccc21 [Example C18, reference compound]	< 1
Nc1nnc(N2CCC(N3Cc4cc(Cl)ccc4OC[C@@H]3Cc3ccc(Cl)cc3)CC2)[nH]1 [Example C20, reference compound]	1 to 10
Nc1nnc(N2CCC(N3Cc4cc(Cl)cc(Cl)c4OC[C@@H]3Cc3ccc(Cl)cc3)CC2)[nH]1 [Example C21, reference compound]	1 to 10

Biological target: recombinant human CHIT1 (Homo sapiens (Human), UniProt Q13231)
Sequence (Q13231 22-466): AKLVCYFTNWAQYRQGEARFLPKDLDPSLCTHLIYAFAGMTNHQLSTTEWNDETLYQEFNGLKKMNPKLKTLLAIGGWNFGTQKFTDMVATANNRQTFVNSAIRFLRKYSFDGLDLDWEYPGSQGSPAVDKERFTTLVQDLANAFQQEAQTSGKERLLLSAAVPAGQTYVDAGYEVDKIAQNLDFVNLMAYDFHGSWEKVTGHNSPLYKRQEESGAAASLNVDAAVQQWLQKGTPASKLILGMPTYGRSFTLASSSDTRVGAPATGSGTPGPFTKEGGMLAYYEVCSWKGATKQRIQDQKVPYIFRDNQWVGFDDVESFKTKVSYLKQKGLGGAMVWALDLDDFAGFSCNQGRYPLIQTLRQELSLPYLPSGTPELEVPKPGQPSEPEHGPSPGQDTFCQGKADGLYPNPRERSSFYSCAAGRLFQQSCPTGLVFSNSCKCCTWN
Assay: Human CHIT1 activity assay
Assay type: biochemical
Conditions: recombinant human CHIT1, citrate buffer pH 5.2, 37° C., 60 minutes; read-out: hCHIT1, IC50
Protocol: The assay was run in the 96-well plate format, each reaction in the total volume of 100 μL. 4-methylumbelliferyl β-D-N,N′,N″-triacetylchitotriose was used as a substrate for the enzyme. Upon hydrolysis by CHIT1, the substrate releases 4-methylumbelliferyl (4MU) that, when ionized in basic pH, emits fluorescence at 460 nm. Briefly, 40 μL of a substrate was added to each well, followed by 10 μL of compound dilution and 50 μL of CHIT1 recombinant enzyme solution. The reaction was carried out in citrate buffer, pH 5.2, in the dark, at 37° C. for 60 minutes with shaking. […] The IC50 values were calculated using GraphPad Prism.

IC50 [µM]	SMILES
< 0.1	Nc1nnc(N2CCC(N3CC(F)(F)C[C@@H]3Cc3ccc(Cl)cc3)CC2)[nH]1 [Example 56, (S)-5-(4-(2-(4-chlorobenzyl)-4,4-difluoropyrrolidin-1-yl)piperidin-1-yl)-4H-1,2,4-triazol-3-amine dihydrochloride]
1 to 10	CC1(O)CCN(C2CCN(c3nnc(N)[nH]3)CC2)[C@@H](Cc2ccc(Cl)cc2)C1 (stereo partly drawn) [Example 59, (2S)-1′-(5-amino-4H-1,2,4-triazol-3-yl)-2-(4-chlorobenzyl)-4-methyl-[1,4′-bipiperidin]-4-ol 2,2,2-trifluoroacetate]
0.1 to 1	CO[C@@H]1CC[C@H](Cc2ccc(Cl)cc2)N(C2CCN(c3nnc(N)[nH]3)CC2)C1 [Example 71, 5-((2R,5R)-2-(4-chlorobenzyl)-5-methoxy-[1,4′-bipiperidin]-1′-yl)-4H-1,2,4-triazol-3-amine 2,2,2-trifluoroacetate]
1 to 10	Nc1nnc(N2CCC(N3Cc4cncn4C[C@@H]3Cc3ccc(C(F)(F)F)cc3)CC2)[nH]1 [Example 77, (S)-5-(4-(6-(4-(trifluoromethyl)benzyl)-5,6-dihydroimidazo[1,5-a]pyrazin-7(8H)-yl)piperidin-1-yl)-4H-1,2,4-triazol-3-amine 2,2,2-trifluoroacetate]
